# Test results as given in patent US7638509B2, “Diene compounds and formulations” (priority 2003, dated 2009).
# Entries after “also recorded” stand apart in the source; their conditions may differ.
# Columns and labels:
# [1] = target: T1, wild-type AR (Homo sapiens, UniProt P10275); assay: Anti-DHT activity on AR transcription, MMTV-Luc reporter in PC-3 cells transfected with AR; type: cell-based; design: expressed in transfected cells; host or cells: PC-3; settings: for suppression of DHT-induced AR transactivation (in words): PC-3, 1 nM DHT, compound at 0.01, 0.1 or 1 μM; for antagonistic effects on DHT-enhanced AR transactivation (in words): compounds related to ADEK, cell line not given
# T1 sequence (P10275 1-920): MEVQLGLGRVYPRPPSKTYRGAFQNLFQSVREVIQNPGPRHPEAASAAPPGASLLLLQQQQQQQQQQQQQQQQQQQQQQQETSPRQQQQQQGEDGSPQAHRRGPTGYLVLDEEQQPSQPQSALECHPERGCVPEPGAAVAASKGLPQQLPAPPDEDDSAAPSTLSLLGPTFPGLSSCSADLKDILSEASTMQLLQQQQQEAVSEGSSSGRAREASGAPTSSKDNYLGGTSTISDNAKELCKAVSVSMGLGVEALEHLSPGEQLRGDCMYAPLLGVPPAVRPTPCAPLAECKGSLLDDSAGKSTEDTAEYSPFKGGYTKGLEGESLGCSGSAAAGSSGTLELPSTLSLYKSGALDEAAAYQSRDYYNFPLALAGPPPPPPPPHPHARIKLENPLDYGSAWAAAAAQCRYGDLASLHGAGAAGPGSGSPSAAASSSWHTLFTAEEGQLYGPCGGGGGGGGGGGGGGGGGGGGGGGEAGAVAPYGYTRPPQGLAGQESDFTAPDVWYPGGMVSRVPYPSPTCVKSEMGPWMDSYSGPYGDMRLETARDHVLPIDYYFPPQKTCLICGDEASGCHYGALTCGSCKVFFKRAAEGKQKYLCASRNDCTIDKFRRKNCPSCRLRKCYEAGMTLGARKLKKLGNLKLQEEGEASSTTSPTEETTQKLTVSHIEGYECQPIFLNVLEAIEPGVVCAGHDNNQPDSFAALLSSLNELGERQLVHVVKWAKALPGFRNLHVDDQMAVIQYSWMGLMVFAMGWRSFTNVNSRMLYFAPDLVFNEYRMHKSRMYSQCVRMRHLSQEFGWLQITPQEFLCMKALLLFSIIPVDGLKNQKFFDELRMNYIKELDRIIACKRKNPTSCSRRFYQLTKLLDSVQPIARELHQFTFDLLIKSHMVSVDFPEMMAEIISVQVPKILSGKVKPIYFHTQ
# Experimental: (§1) Cell Culture, Transfection, and Reporter Gene Assay. The human prostate cancer cell lines, LNCaP, PC-3, and DU145, and non-prostate cancer cell line COS-1 were maintained in RPMI or Dulbecco's modified Eagle's medium (DMEM) (Life Technologies) supplemented with 10% fetal bovine serum (FBS). Transfections and luciferase (Luc) assays were performed as previously described (Miyamoto, H., Yeh, S., Wilding, G. & Chang, C. (1998) Proc. Natl. Acad. Sci. USA 95, 7379-7384; Miyamoto, H., Rahman, M., Takatera, H., Kang, H.-Y., Yeh, S., Chang, H.-C., Nishimura, K., Fujimoto, N. & Chang, C. (2002) J. Biol. Chem. 277, 4609-4617). Briefly, cells seeded to reach a density of 50-60% confluence in 12 well tissue culture plates were transfected with 1.5 μg of DNA according to “SuperFect transfection” instructions (Qiagen). After 2-3 h incubation, cells were treated with medium supplemented with charcoal-stripped FBS containing either ethanol or ligands for 24 h. The cells were then harvested and whole cell extracts were used for Luc assay. The Luc activity was determined using a Dual-Luciferase Reporter Assay System (Promega) and luminometer.
# (§2) To accomplish these studies, PC-3 cells were transfected with the wild-type AR expression plasmid pSG5-AR and MMTV-Luc. […] The Luc activity was measured relative to that of ethanol treatment (set as 1-fold). Values from the mean±SD of at least three determinations were used. PC-3 cells were transfected with the pSG5-AR and MMTV-Luc. […] Values from the mean±SD of at least three determinations were obtained.
# [2] = system: PSA; assay: PSA expression in LNCaP cells, Western blot; type: cell-based, human; settings: 48 h
# Experimental: Western Blot. […] An antibody for -actin (Santa Cruz Biotechnology) was used as the internal control. Blots were quantitated by Collage software (Fotodyne).
# The 33-kDa protein was quantitated. β-Actin expression was used as an internal control. […] The mean±SD of three separate experiments was determined. […] Total cell number was counted by hemocytometer. The mean of at least three determinations was determined.
# [3] = system: LNCaP cells; assay: LNCaP cell growth, cell count by hemocytometer; type: cell-based, human; settings: 1 nM DHT; 1 μM compound in presence of DHT
# Experimental: The mean±SD of three separate experiments was determined. […] Total cell number was counted by hemocytometer. The mean of at least three determinations was determined.
# [4] = target: T1, wild-type AR; assay: AR transcriptional activity (androgenic activity), MMTV-Luc reporter in PC-3 cells transfected with wild-type AR; type: cell-based; design: expressed in transfected cells; host or cells: PC-3; settings: PC-3, wild-type AR plasmid + MMTV-Luc, compound at 1000 nM, 24 h
# Experimental: as §1
# Anti-DHT Effect of DHEA Derivatives with Low Androgenic Activity on AR Transcription. Test compounds as antiandrogenic compounds, were characterized by analysis of their ability to induce AR transcriptional activity in the AR-negative PC-3 cell line. The Luc activity was determined in the cell extracts with transient transfection of wild-type AR plasmid and androgen response element-reporter plasmid (mouse mammary tumor virus (MMTV)-Luc). After transfection, the cells were treated with various compounds at 0.1-1,000 nM.
# as §2
SMILES,suppression of DHT-induced AR transactivation (in words) [1],also measured
C[C@]12C=C[C@H](O)CC1=CC[C@@H]1[C@@H]2CC[C@@]2(C)[C@H]1CCC21OCCO1,–,melting point: 138 to 140 °C
"C[C@]12CC[C@H]3[C@@H]([C@H](O)CC4C[C@@H](O)CC[C@@]43C)[C@@H]1CC[C@@H]2O (stereo partly drawn) [3β,7α,17β-trihydroxyandrostane]",little or no capacity,–
"C[C@]12CC[C@H]3[C@@H]([C@@H](O)C=C4C[C@@H](O)CC[C@@]43C)[C@@H]1CC[C@@H]2O [3β,7β,17β-trihydroxyandrost-5-ene]",little or no capacity,–
"COC(=O)[C@H]1CC[C@@]2(C)C(=CC(=O)[C@@H]3[C@@H]2CC[C@]2(C)C(=O)[C@H](C(=O)OC)C[C@@H]32)C1 [3β,16α-bis-carbomethoxyandrost-5-ene-7,17-dione]",less effective,–
"C[C@]12CC[C@H]3[C@@H](CCC4=C[C@@H](O)CC[C@@]43C)[C@@H]1CC[C@@H]2O [3β,17β-dihydroxyandrost-4-ene]",less effective,–
"CC(=O)O[C@H]1C=C[C@@]2(C)C(=CC[C@H]3[C@@H]4CC[C@H](O)[C@@]4(C)CC[C@@H]32)C1 [3β-acetoxy-17β-hydroxyandrost-1,5-diene]",less effective,antagonistic effects on DHT-enhanced AR transactivation (in words) [1]: did not show significant antagonistic effects
"CC12CCC3(CC1=CC(O)C1C2CCC2(C)C1CCC21OCCO1)OCCO3 (stereo not drawn) [7α-hydroxyandrost-5-ene-3,17-bis ethylene ketal]",less effective; also recorded: little or no capacity,–
"C[C@]12CC[C@H]3[C@@H]([C@@H](O)C=C4CC5(CC[C@@]43C)OCCO5)[C@@H]1CC[C@@H]2O [7β,17β-dihydroxyandrost-5-ene-3-ethylene ketal]",less effective,–
C[C@]12CC[C@H](O)C[C@@H]1CC[C@@H]1[C@@H]2CC[C@]2(C)C(=O)[C@H](Br)C[C@@H]12 [16α-bromoepiandrosterone],little or no capacity,–
"CC(=O)O[C@H]1CC[C@H]2[C@@H]3CC(=O)C4=CC(=O)CC[C@]4(C)[C@H]3CC[C@]12C [17β-acetoxyandrost-4-ene-3,6-dione]",little or no capacity,–
CCC(=O)O[C@H]1CC[C@H]2[C@@H]3C(=O)C=C4CC5(CC[C@]4(C)[C@H]3CC[C@]12C)OCCO5 [17β-propionony-7-oxoandrost-5-en-3-ethylene ketal],little or no capacity,–
"C[C@]12CCC(=O)C[C@@H]1CC[C@@H]1[C@@H]2CC[C@]2(C)[C@@H](O)CC[C@@H]12 [DHT, dihydrotestosterone, reference compound]",–,"endogenous PSA expression over mock treatment ([2]; 1 nM DHT or 1 μM HF, casodex, ADEK in absence of DHT): 4.3 fold; effect on LNCaP cell growth, DHT alone or compound with DHT (in words) [3]: significantly increased cell growth"
"C[C@]12CC[C@H]3[C@@H]([C@H](O)C=C4C[C@@H](O)CC[C@@]43C)[C@@H]1CC[C@@H]2O [No. 5, 3β,7α,17β-trihydroxyandrost-5-ene]",modest suppression,induction on AR transcription as compared to mock treatment [4]: marginal induction
"CC(=O)O[C@H]1C=C[C@@]2(C)C(=CC[C@@H]3[C@@H]2CC[C@]2(C)C(=O)CC[C@@H]32)C1 [No. 14, 3β-acetoxyandrost-1,5-diene-17-one]",modest suppression,induction on AR transcription as compared to mock treatment [4]: marginal induction; antagonistic effects on DHT-enhanced AR transactivation (in words) [1]: did not show significant antagonistic effects
"C[C@]12C=C[C@H](O)CC1=CC[C@@H]1[C@@H]2CC[C@]2(C)C(=O)CC[C@@H]12 [No. 16, 3β-hydroxyandrost-1,5-diene-17-one]",modest suppression,induction on AR transcription as compared to mock treatment [4]: marginal induction; antagonistic effects on DHT-enhanced AR transactivation (in words) [1]: did not show significant antagonistic effects
"C[C@]12C=CC(=O)C=C1CC[C@@H]1[C@@H]2CC[C@]2(C)C(=O)CC[C@@H]12 [androst-1,4-diene-3,17-dione]",less effective,antagonistic effects on DHT-enhanced AR transactivation (in words) [1]: did not show significant antagonistic effects
"CC(O)(CS(=O)(=O)c1ccc(F)cc1)C(=O)Nc1ccc(C#N)c(C(F)(F)F)c1 (stereo not shown) [casodex, bicalutamide]",–,DHT-induced PSA expression decreased to (DHT = 100%) ([2]; 1 μM compound + 1 nM DHT): 58%
